From ChEMBL document CHEMBL4033607, “Structurally Diverse Alkaloids from the Seeds of Peganum harmala” (J Nat Prod, 2017)

What was measured:
Format in all cases: functional, cell-based
[1] = tested on: PC-3; assay: Antiproliferative activity against human PC3 cells by MTT assay
[2] = tested on: SGC-7901; assay: Antiproliferative activity against human SGC7901 cells by MTT assay
[3] = tested on: HL-60; assay: Antiproliferative activity against human HL60 cells by tryphan blue assay

Structure (SMILES) | IC50 [1] [µM] | IC50 [2] [µM] | IC50 [3] [µM]
COc1ccc2c3c([nH]c2c1)-c1nc2ccccc2c(=O)n1CC3 | > 10 | > 10 | > 10
COc1ccc2c3c([nH]c2c1)C(=O)NCC3 | > 10 | > 10 | > 10
COc1cc(Cc2cncs2)cc(OC)c1O | > 10 | > 10 | > 10
COc1ccc2c3ccnc4cc(C)c(=O)n(c2c1)c43 | > 10 | > 10 | > 10
COc1ccc2c3c([nH]c2c1)C(c1cnc2ccccc2c1)=NCC3 | > 10 | > 10 | > 10
COc1ccc2c(c1)[nH]c1c(CO)nccc12 |  |  | 4.36
CCc1nccc2c1[nH]c1cc(OC)ccc12 |  |  | 9.05
COC(=O)N1CC[C@@]2(O)c3ccc(OC)cc3N(C(=O)OC)[C@@]12C | > 10 | > 10 | > 10
COC(=O)N1c2cc(OC)ccc2[C@@]2(O)CCN[C@@]12C | > 10 | > 10 | > 10
COC(=O)/C=C1/c2[nH]c3cc(OC)ccc3c2CCN1C(C)=O | > 10 | > 10 | > 10
COc1ccc2c(c1)[nH]c1c(C(N)=O)nccc12 | > 10 | > 10 | > 10
COc1ccc2c3c([nH]c2c1)C(C)=[N+]([O-])CC3 | > 10 | > 10 | > 10
COC(=O)N1CC[C@]2(O)c3ccc(OC)cc3N(C(=O)OC)[C@]12C | > 10 | > 10 | > 10
COc1ccc2c(c1)[nH]c1c(C)[n+]([O-])ccc12 | > 10 | > 10 | > 10
COc1ccc2c3c([nH]c2c1)-c1cc(CO)cc(=O)n1CC3 | > 10 | > 10 | > 10
COc1ccc2c3c([nH]c2c1)-c1cccc(=O)n1CC3 |  |  | 9.25
COC(=O)N1c2cc(OC)ccc2[C@]2(O)CCN[C@]12C | > 10 | > 10 | > 10
COc1cc(Cc2cnc(C)s2)cc(OC)c1O | > 10 | > 10 | > 10
COc1ccc2c(c1)[nH]c1c(C(C)=O)nccc12 [ARENARINE C] | > 10 | > 10 | > 10
COc1ccc2c3c([nH]c2c1)C(C)=NCC3 [HARMALINE] | > 10 | > 10 | > 10
Cc1nccc2c1[nH]c1ccccc12 [HARMAN] | > 10 | > 10 | > 10
COC(=O)c1nccc2c1[nH]c1cc(OC)ccc12 [HARMIC ACID METHYL ESTER] | > 10 | > 10 | > 10
